Experimental data from patent publication US20030176314A1, “Compounds for the treatment of pain” (priority 2001, published 2003).
pEC50: −log10 of the molar value. Like-named read-outs stand apart in the source and are kept apart here.

What was measured:
[1] = target: T1, rat NPFF2 receptor (Rattus norvegicus, UniProt Q9EQD2); experiment: Functional assay (agonist potency, intrinsic activity) at cloned rat NPFF2 receptor; format: cell-based; details: for rNPFF2 IA: Table 7, intrinsic activity; for Functional Activity rNPFF2 I.A. %: percent of maximum response elicited by neuropeptide FF; for pEC50: read-out: Functional Activity rNPFF2 EC50
T1 construct: The full-length NPFF2 was amplified from rat spinal cord cDNA; expressed in transfected cells; host or cells: not given
T1 sequence (Q9EQD2 whole entry): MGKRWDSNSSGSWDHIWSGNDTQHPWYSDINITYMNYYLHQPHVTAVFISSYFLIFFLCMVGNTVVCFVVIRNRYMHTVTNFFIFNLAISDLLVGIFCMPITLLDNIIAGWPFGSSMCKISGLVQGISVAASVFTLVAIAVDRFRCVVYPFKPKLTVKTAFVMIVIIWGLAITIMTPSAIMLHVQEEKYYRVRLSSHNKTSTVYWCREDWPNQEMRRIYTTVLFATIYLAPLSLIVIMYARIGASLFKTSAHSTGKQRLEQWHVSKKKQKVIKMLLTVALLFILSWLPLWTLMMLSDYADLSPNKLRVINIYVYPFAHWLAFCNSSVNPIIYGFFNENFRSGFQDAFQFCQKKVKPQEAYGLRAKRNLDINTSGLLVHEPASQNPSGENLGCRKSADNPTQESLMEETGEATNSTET

[2] = target: T2, rat NPFF1 receptor (Rattus norvegicus, UniProt Q9EP86); experiment: Functional assay (agonist potency, intrinsic activity) at cloned rat NPFF1 receptor; format: cell-based; details: for rNPFF1 IA: Table 7, intrinsic activity; for Functional Activity rNPFF1 I.A. %: percent of maximum response elicited by neuropeptide FF
T2 construct: expressed in transfected cells; host or cells: not given
T2 sequence (Q9EP86 whole entry): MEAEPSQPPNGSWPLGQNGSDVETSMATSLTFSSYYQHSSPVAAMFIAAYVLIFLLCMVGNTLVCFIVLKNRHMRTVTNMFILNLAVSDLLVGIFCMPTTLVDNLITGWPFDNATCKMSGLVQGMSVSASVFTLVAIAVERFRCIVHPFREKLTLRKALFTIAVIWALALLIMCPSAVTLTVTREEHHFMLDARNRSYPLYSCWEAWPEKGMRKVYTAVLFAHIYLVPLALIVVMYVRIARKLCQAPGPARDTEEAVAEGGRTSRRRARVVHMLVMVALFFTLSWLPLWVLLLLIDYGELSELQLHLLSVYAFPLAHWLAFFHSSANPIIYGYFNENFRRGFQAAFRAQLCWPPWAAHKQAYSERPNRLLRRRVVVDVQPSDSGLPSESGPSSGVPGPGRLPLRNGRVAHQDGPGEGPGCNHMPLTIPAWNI

[3] = Table 7, agonist potency, read-out: rNPFF1 EC50
[4] = agonist: IA>15%, antagonist: Ki≦1.2 mM and IA≦15% at the rat cloned NPFF receptors

| Compound | rNPFF2 IA [1] | further results |
| --- | --- | --- |
| Cc1ccc2nc(NC(=N)N)nc(C)c2c1 [Compound 1002A, N-(4,6-dimethyl-2-quinazolinyl)guanidine] | 24% NPFF |  |
| Cc1nc(NC(=N)N)nc2ccc(C(C)(C)C)cc12 [Compound 1004A, N-(6-tert-butyl-4-methyl-2-quinazolinyl)guanidine] | 90% NPFF | rNPFF1 IA [2]: 36% NPFF |
| N=C(N)NCCC[C@H](NS(=O)(=O)c1c(F)cccc1F)C(=O)N[C@@H](Cc1ccccc1)C(N)=O [Compound 1004B] |  | Functional Activity rNPFF1 I.A. % ([2]; Table 4): 79%; Functional Activity rNPFF2 I.A. % ([1]; Table 4): 43%; pEC50 ([1]; Table 4): < 5.50 |
| N=C(N)NCCC[C@H](NS(=O)(=O)c1ccc(F)cc1)C(=O)N[C@@H](Cc1ccccc1)C(N)=O [Compound 1005B] |  | Functional Activity rNPFF2 I.A. % ([1]; Table 4): 46% |
| Cc1nc(NC(=N)N)nc2cc(OCc3ccccc3)ccc12 [Compound 1006A, N-[7-(benzyloxy)-4-methyl-2-quinazolinyl]guanidine] | 22% NPFF | rNPFF1 IA [2]: 15% NPFF |
| Cc1ccc(S(=O)(=O)N[C@@H](CCCNC(=N)N)C(=O)N[C@@H](Cc2ccccc2)C(N)=O)cc1 [Compound 1007B] |  | Functional Activity rNPFF2 I.A. % ([1]; Table 4): 55% |
| CCCc1ccc2nc(NC(=N)N)nc(C)c2c1 [Compound 1008A, N-(4-methyl-6-propyl-2-quinazolinyl)guanidine] | 85% NPFF |  |
| CCCCCCCCc1ccc2nc(NC(=N)N)nc(C)c2c1 [Compound 1009A, N-(4-methyl-6-octyl-2-quinazolinyl)guanidine] | 22% NPFF | pEC50 [2, 3]: 5.83 |
| Cc1nc(NC(=N)N)nc2ccc(-c3ccccc3)cc12 [Compound 1010A, N-(4-methyl-6-phenyl-2-quinazolinyl)guanidine] | 22% NPFF |  |
| N=C(N)NCCC[C@H](NS(=O)(=O)c1ccc(Cl)cc1Cl)C(=O)N[C@@H](Cc1ccccc1)C(N)=O [Compound 1010B] |  | Functional Activity rNPFF2 I.A. % ([1]; Table 4): 28% |
| CCCCOc1ccc2nc(NC(=N)N)nc(C)c2c1 [Compound 1012A, N-(6-butoxy-4-methyl-2-quinazolinyl)guanidine] | 80% NPFF |  |
| Cc1nc(NC(=N)N)nc2cc(Br)ccc12 [Compound 1014A, N-(7-bromo-4-methyl-2-quinazolinyl)guanidine] | 47% NPFF |  |
| Cc1cc2nc(NC(=N)N)nc(C)c2cc1C [Compound 1015A, N-(4,6,7-trimethyl-2-quinazolinyl)guanidine] | 56% NPFF |  |
| COc1ccc(S(=O)(=O)N[C@@H](CCCNC(=N)N)C(=O)N[C@@H](Cc2ccccc2)C(N)=O)cc1OC [Compound 1015B] |  | Functional Activity rNPFF1 I.A. % ([2]; Table 4): 84%; Functional Activity rNPFF2 I.A. % ([1]; Table 4): 74% |
| COc1cc2c(C)nc(NC(=N)N)nc2cc1C [Compound 1016A, N-(6-methoxy-4,7-dimethyl-2-quinazolinyl)guanidine] | 74% NPFF |  |
| Cc1cc2nc(NC(=N)N)nc(C)c2cc1O [Compound 1017A, N-(6-hydroxy-4,7-dimethyl-2-quinazolinyl)guanidine] | 23% NPFF |  |
| Cc1nc(NC(=N)N)nc2cc(F)c(F)cc12 [Compound 1019A, N-(6,7-difluoro-4-methyl-2-quinazolinyl)guanidine] | 31% NPFF |  |
| N=C(N)NCCC[C@H](NS(=O)(=O)c1c(Cl)cccc1Cl)C(=O)N[C@@H](Cc1ccccc1)C(N)=O [Compound 1019B] |  | classification as agonist or antagonist at the NPFF1 receptor [2, 4]: agonists; classification as agonist or antagonist at the NPFF2 receptor [1, 4]: agonists |
| Cc1nc(NC(=N)N)nc2cc(C(C)C)ccc12 [Compound 1021A, N-(7-isopropyl-4-methyl-2-quinazolinyl)guanidine] | 76% NPFF |  |
| N=C(N)NCCC[C@H](NS(=O)(=O)c1ccc(Cl)c(Cl)c1)C(=O)N[C@@H](Cc1ccccc1)C(N)=O [Compound 1022B] |  | Functional Activity rNPFF1 I.A. % ([2]; Table 4): 86%; pEC50 ([2]; Table 4, read-out: Functional Activity rNPFF1 EC50): 5.73; Functional Activity rNPFF2 I.A. % ([1]; Table 4): 34%; pEC50 ([1]; Table 4): < 5.50 |
| Cc1nc(NC(=N)N)nc2cc(OC(C)C)ccc12 [Compound 1025A, N-[4-methyl-7-(isopropoxy)-2-quinazolinyl]guanidine] | 27% NPFF |  |
| Cc1nc(NC(=N)N)nc2ccc(Br)cc12 [Compound 1026A, N-(6-bromo-4-methyl-2-quinazolinyl)guanidine] | 19% NPFF |  |
| N=C(N)NCCC[C@H](NS(=O)(=O)c1ccccc1[N+](=O)[O-])C(=O)N[C@@H](Cc1ccccc1)C(N)=O [Compound 1026B] |  | Functional Activity rNPFF1 I.A. % ([2]; Table 4): 79%; Functional Activity rNPFF2 I.A. % ([1]; Table 4): 59% |

| Compound | rNPFF2 IA [1] | further results |
| --- | --- | --- |
| N#Cc1ccccc1S(=O)(=O)N[C@@H](CCCNC(=N)N)C(=O)N[C@@H](Cc1ccccc1)C(N)=O [Compound 1027B] |  | Functional Activity rNPFF1 I.A. % ([2]; Table 4): 52%; Functional Activity rNPFF2 I.A. % ([1]; Table 4): 48% |
| Cc1nc(NC(=N)N)nc2ccc(OCc3ccccc3)cc12 [Compound 1028A, N-[6-(benzyloxy)-4-methyl-2-quinazolinyl]guanidine] | 79% NPFF |  |
| N=C(N)NCCC[C@@H](NS(=O)(=O)c1ccc(F)cc1)C(=O)N[C@@H](Cc1ccccc1)C(N)=O [Compound 1028B] |  | Functional Activity rNPFF1 I.A. % ([2]; Table 5): 46%; Functional Activity rNPFF2 I.A. % ([1]; Table 5): 62% |
| Cc1nc(NC(=N)N)nc2ccc(C3CCCCC3)cc12 [Compound 1029A, N-(6-cyclohexyl-4-methyl-2-quinazolinyl)guanidine] | 31% NPFF | rNPFF1 IA [2]: 28% NPFF |
| Cc1nc(NC(=N)N)nc2ccc(OC(F)(F)F)cc12 [Compound 1030A, N-[4-methyl-6-(trifluoromethoxy)-2-quinazolinyl]guanidine] | 85% NPFF |  |
| CCCCCOc1ccc2nc(NC(=N)N)nc(C)c2c1 [Compound 1031A, N-[4-methyl-6-(pentyloxy)-2-quinazolinyl]guanidine] | 66% NPFF |  |
| Cc1nc(NC(=N)N)nc2ccc(Oc3ccccc3)cc12 [Compound 1032A, N-(4-methyl-6-phenoxy-2-quinazolinyl)guanidine] | 93% NPFF | rNPFF1 IA [2]: 31% NPFF |
| Cc1ccc(Oc2ccc3nc(NC(=N)N)nc(C)c3c2)cc1 [Compound 1033A, N-[4-methyl-6-(4-methylphenoxy)-2-quinazolinyl]guanidine] | 51% NPFF |  |
| Cc1nc(NC(=N)N)nc2ccc(CCCC(C)O)cc12 (centres unmarked) [Compound 1034A, N-(6-[1-(4-hydroxyl-pentyl)]-4-methyl-2-quinazolino)guanidine] | 101% NPFF | rNPFF1 IA [2]: 63% NPFF |
| Cc1nc(NC(=N)N)nc2cc(C(C)O)ccc12 (centres unmarked) [Compound 1035A, N-[7-(1-hydroxyethyl)-4-methyl-2-quinazolinyl]guanidine] | 52% NPFF |  |
| Cc1nc(NC(=N)N)nc2cc(OC(F)(F)F)ccc12 [Compound 1036A, N-[4-methyl-7-(trifluoromethoxy)-2-quinazolinyl]guanidine] | 78% NPFF |  |
| Cc1nc(NC(=N)N)nc2cc3c(cc12)C=CCC3 [Compound 1037A, N-(4-methyl-8,9-dihydrobenzo[g]quinazolin-2-yl)guanidine] | 71% NPFF |  |
| Cc1nc(NC(=N)N)nc2cc3ccoc3cc12 [Compound 1039A, N-(4-methylfuro[2,3-g]quinazolin-2-yl)guanidine] | 78% NPFF | pEC50 [2, 3]: < 5.00 |
| N=C(N)NCCC[C@H](NS(=O)(=O)c1ccccc1Br)C(=O)N[C@@H](Cc1ccccc1)C(N)=O [Compound 2001B] |  | Functional Activity rNPFF1 I.A. % ([2]; Table 4): 81%; Functional Activity rNPFF2 I.A. % ([1]; Table 4): 9% |
| N=C(N)NCCC[C@H](NS(=O)(=O)c1ccc([N+](=O)[O-])cc1[N+](=O)[O-])C(=O)N[C@@H](Cc1ccccc1)C(N)=O [Compound 2002B] |  | Functional Activity rNPFF1 I.A. % ([2]; Table 4): 34%; Functional Activity rNPFF2 I.A. % ([1]; Table 4): 5% |
| Cc1nc(NC(=N)N)nc2ccc(Cc3ccccc3)cc12 [Compound 2003A, N-(6-benzyl-4-methyl-2-quinazolinyl)guanidine] | 89% NPFF | rNPFF1 IA [2]: 56% NPFF |
| Cc1ccc2nc(NC(=N)N)cc(C)c2c1 [Compound 4001A, N-(4,6-dimethyl-2-quinolinyl)guanidine] | 68% NPFF |  |
| Cc1cc(NC(=N)N)nc2ccc(-c3ccccc3)cc12 [Compound 4003A, N-(4-methyl-6-phenyl-2-quinolinyl)guanidine] | 26% NPFF |  |
| COc1ccc2nc(NC(=N)N)cc(C)c2c1 [Compound 4004A, N-(6-methoxy-4-methyl-2-quinolinyl)guanidine] | 65% NPFF |  |
| Cc1cc(NC(=N)N)nc2cc(F)ccc12 [Compound 4007A, N-(7-fluoro-4-methyl-2-quinolinyl)guanidine] | 17% NPFF |  |
| Cc1cc(C)c2c(C)cc(NC(=N)N)nc2c1 [Compound 4008A, N-(4,5,7-trimethyl-2-quinolinyl)guanidine] | 65% NPFF |  |
| Cc1cc(NC(=N)N)nc2ccc3ccccc3c12 [Compound 4009A, N-(1-methylbenzo[f]quinolin-3-yl)guanidine] | 70% NPFF |  |
